From a melting point compilation (Tetko et al.; mined from patent text by program, amines drawn as free bases though some values may be those of a salt)

| melting point | Structure (SMILES) |
| --- | --- |
| 125 °C | Cc1cccc(NC(=O)NCC(=O)N(CC(=O)OC(C)(C)C)c2cccc(OC(F)(F)F)c2)c1 |
| 219 to 220 °C | CC(=O)Nc1cc(Oc2ccc3c(c2)CCN3C(=O)Nc2ccc(OC(C)(C)C(=O)O)c(C(F)(F)F)c2)ncn1 |
| 260 °C | Oc1c2c3c(ccnc3c3ccccc13)CCC2 |
| 125 to 127 °C | COc1cc(OC)cc(S(=O)(=O)c2ccc([N+](=O)[O-])c(C)c2)c1 |
| 118 to 119 °C | CN(C)CCN(C(=O)N(C)C)c1ccc(N)cn1 |
| 99 to 101 °C | CCOC(=O)c1coc(-c2ccc(CO)cc2)n1 |
| 221 to 223 °C | CC(C)=NNc1cc2c(nn1)CCN(C(=O)c1ccc(Cl)cc1)C2 |
| 325 to 327 °C | COc1ccc(-c2cnc(N3Cc4c([nH]c5ccccc5c4=O)C3c3ccc4c(c3)OCO4)nc2)cc1 (configuration not stated) |
| 223 °C | Cn1c(=O)c(C#N)c(N2CCNCC2)c2cc(Cl)ccc21 |
| 198 °C | COc1ccc(-c2nc3cnccc3[nH]2)c(OCC#N)c1 |
| 237 to 239 °C | Cn1cnc(COc2nn3c(-c4ccccc4)nnc3cc2-c2cccs2)n1 |
| 145 to 148 °C | COC1=CC(=O)C(Cc2ncn(C(c3ccccc3)(c3ccccc3)c3ccccc3)c2C)CC1 (configuration not stated) |
| 42 to 43 °C | Cc1c(N(C)C)ccc([N+](=O)[O-])c1CO |
| 206 to 208 °C | CCOC(=O)C1=C(COc2cccnc2)NC(COc2cccnc2)=C(C(=O)OCC)C1c1cccc([N+](=O)[O-])c1 |
| 175 to 184 °C | COc1ccc(Nc2ccc(Nc3ccnc4cc(-c5cccc([N+](=O)[O-])c5)sc34)cc2)cc1 |
| 177 to 180 °C | Cc1noc(NS(=O)(=O)c2cccc3c(NC(=O)C(C)C)cccc23)c1C |
| 133 to 134 °C | COC(=O)CCn1nc(-c2c(-c3ccccc3)nn3ccccc23)ccc1=O |
| 75 to 80 °C | CC(C)(C)c1ccc(S(=O)(=O)N2c3ccccc3C[C@H]2C(=O)NCc2ccc([N+](=O)[O-])cc2)cc1 |
| 80 to 91 °C | NC(=S)NCc1ccco1 |
| 115 °C | CC(=NO)c1ccccc1NC(C(N)=O)c1c(Cl)cccc1Cl (configuration not stated) |
| 52 to 54 °C | COc1ccc(Cl)cc1C(=O)CCCCCl |
| 95 to 96 °C | COc1ccc2c(c1)/C(=C/C#N)CC2 |
| 106 to 107 °C | C=CCOc1ccc(COc2ccc(CC(=O)O)cc2Cl)cc1 |
| 136 to 137 °C | CC1(CC(O)(Cc2ccc(Cl)cc2Cl)c2cccnc2)OCCO1 (configuration not stated) |
| 88 to 89 °C | ClCc1ccc(-n2c3ccccc3c3ccccc32)cc1 |

| melting point | Structure (SMILES) |
| --- | --- |
| 101 to 104 °C | Cc1ccc(Oc2ccc(C)cc2CC(=O)O)cc1 |
| 118 to 121 °C | Nc1cc(Sc2ccc(Cl)cc2)nc(-c2ccccc2)n1 |
| 222 to 224 °C | Cc1ccc(-c2cc(CN3C(=O)c4ccccc4C3=O)c(=O)n(CC(C)C)n2)cc1 |
| 244 to 246 °C | Cc1nn(-c2ccc(Cl)cc2)c(C)c1NC(N)=S |
| 128 °C | CCc1c(C)nc2c(O)cccn2c1=O |
| 118 to 119 °C | Cc1ccc(S(=O)(=O)N(c2ccc(C#N)cc2Cl)C(C)C)cc1 |
| 178 to 180 °C | FC(F)(F)c1ccc(-c2ncc(C#Cc3cc4ccccc4s3)s2)cc1 |
| 79.5 °C | O=Cc1cc([N+](=O)[O-])ccc1-c1ccccc1 |
| > 250 °C | CC(C)c1c(Cl)sc2[nH]c(=O)c(=O)[nH]c12 |
| 97 to 104 °C | CC(C)c1ccc(C(F)(F)C(F)(F)c2ccccc2)cc1 |
| 99 to 101 °C | O=C(O)c1cc(OCC(F)(F)F)ccc1OCC(F)(F)F |
| 208 °C | CC(C)(C#N)c1c(Cl)cc(N)cc1Cl |
| 112 °C | NS(=O)(=O)c1ccc(F)c(C(O)CCl)c1 (configuration not stated) |
| 153 to 155 °C | CC(=O)c1ccc(NS(C)(=O)=O)c(C(=O)Nc2ccc(F)cc2F)c1 |
| 128 to 129 °C | COc1ccc(C2=NN(CCO)C(=O)[C@H]3CCCC[C@@H]23)cc1OC (relative stereo) |
| 142 to 143 °C | CCOC(=O)c1cnc(-c2ccccc2)nc1OCc1ccc(OCc2nc(-c3ccco3)oc2C)c(OC)c1 |
| 175 to 176 °C | OCC1Cc2c([nH]c3ccccc23)CN1C(=S)SCc1ccc(Cl)cc1 (configuration not stated) |
| 101 to 102 °C | CCOC(=O)c1ccc(NC2(C#N)CCCCC2)cc1 |
| 129 to 132 °C | Cn1nc(-c2ccc(OC3CCN(C4CCCC4)CC3)cc2)ccc1=O |
| 132 to 137 °C | CCOC(=O)Oc1ccc([N+](=O)[O-])c(C(=O)O)c1 |
| 66 to 67 °C | CC(C)c1nn(-c2ncc(C(F)(F)F)cc2Cl)cc1CCCO |
| 231 °C | Cn1nc(-c2cnc(N)nc2-c2ccc(F)c(F)c2)ccc1=O |
| 150 to 186 °C | O=C(CC(F)(F)F)NC[C@H]1CN(c2ccc3c(c2)CCCc2cnoc2-3)C(=O)O1 |
| 130 to 133 °C | Nc1ccccc1SCn1ccccc1=O |
| 183 to 185 °C | CCOC(=O)c1cc2c3cc(Br)ccc3ncn2c1 |

| melting point | Structure (SMILES) |
| --- | --- |
| > 260 °C | Cn1c(C(N)=O)c(-c2ccc(NC(=O)Nc3cc(C(F)(F)F)ccc3F)cc2)c2ccccc21 |
| 86 to 89 °C | CC1=NC(=NOC(=O)NC2CC2)SC1(C)C |
| 137 to 142 °C | Cn1c(CC#N)ccc1C(=O)c1ccc(N)cc1 |
| 233 to 235 °C | CNC(=O)c1cc(-c2ccc(F)cc2)c2c3c(ccc2n1)OCO3 |
| 62 to 64 °C | CC(C)(C)C(=O)Cn1cncn1 |
| 244 to 245 °C | O=C(O)c1nn(-c2ccccc2)c2c1C(N1CCOCC1)c1ccccc1-2 (configuration not stated) |
| 151 to 153 °C | COc1ccccc1N1CCN(CCCCOc2ccc(-c3cn4cccnc4n3)cc2)CC1 |
| 228 to 229 °C | O=C1CC(c2cccc([N+](=O)[O-])c2)=Nc2ccc(C#Cc3ccccc3)cc2N1 |
| 82 to 85 °C | CCOC(=O)C1=C(C)NC(C)=C(C(=O)OCCN2CCN(C(c3ccc(C)cc3)c3ccc(C)cc3)CC2)C1c1cccc([N+](=O)[O-])c1 (configuration not stated) |
| 246 to 248 °C | C=Cn1cc(C(=O)O)c(=O)c2cc(F)c(N3CCN(C(=O)OCC)CC3)nc21 |
| 150 °C | N=C(N)Nc1nc(-c2ccccc2[N+](=O)[O-])c2cc(Cl)ccc2n1 |
| 60 °C | C=CCC=CCC=CCCCCCCCc1cccc(O)c1 |
| 167 to 169 °C | Cc1ccccc1CNc1c2c(nc3ccccc13)CCCC2O (configuration not stated) |
| 59 to 60 °C | Nc1ccc(Sc2ccccc2)cc1Cl |
| 280 to 282 °C | O=C1CCc2ccc(NC(=O)c3cc4cccnc4n3Cc3cccc(F)c3)cc2N1 |
| 108 to 112 °C | O=C(O)Cc1csc(Nc2ccc(Cl)c(C(F)(F)F)c2)n1 |
| 98 to 101 °C | CC(C)(C)OC(=O)N1CC=C(c2nc3c(Cl)cccc3s2)CC1 |
| 152 to 155 °C | CN(c1ccc([N+](=O)[O-])cc1C(F)(F)F)c1c(Cl)c(Cl)nc(Cl)c1Cl |
| > 360 °C | CCn1c(=O)c2nc(-c3ccc(/C=C/C(=O)O)cc3)[nH]c2n(CC)c1=O |
| 163 to 164 °C | CCCn1cnc(C(N)=O)c1NC(=S)NC(=O)c1ccccc1 |
| > 400 °C | Nc1ccc(NC(=O)NCc2ccc3c(c2)CN(C2CCC(=O)NC2=O)C3=O)cc1 (configuration not stated) |
| 153 to 156 °C | CCOC(=O)c1cn(CC)c2sc(Br)cc2c1=O |
| 261 to 263 °C | CC(C)(C)c1nnc(N=C=O)s1 |
| 268 to 270 °C | CC12CCC3c4ccc(C(=O)O)cc4CCC3C1CCC2C(=O)c1ccc(-c2ccccc2)cc1 (configuration not stated) |
| 210 to 219 °C | CCOc1cc(O)c2cc(C(C)=O)ccc2n1 |

| melting point | Structure (SMILES) |
| --- | --- |
| 186 to 188 °C | CC(C(N)=S)(c1ccccc1)c1ccccn1 (configuration not stated) |
| 165 to 167 °C | COc1c(Cl)ccc(-c2nc(N)c(C(C)OC)c(C(=O)O)n2)c1F (configuration not stated) |
| 117 to 119 °C | Brc1ccc(-c2csc(Br)n2)cc1 |
| 67 to 70 °C | C=CCc1cc(C(=O)OCC)ccc1O |
| 188 to 190 °C | CCCCc1nc2c(N)nc3cccnc3c2n1CCNC(=O)C1CCCCC1 |
| 149 to 151 °C | Cc1cc(OCc2ccc(-c3ccc(C(F)(F)F)cc3)nc2)ccc1OC(C)(C)C(=O)O |
| 84 to 90 °C | CC(=O)C1CCC2C3CCC4CCCCC4(C)C3CCC12C (configuration not stated) |
| 153 to 155 °C | Cn1c(C(F)F)nn(-c2cc(O)c(Cl)cc2F)c1=O |
| > 300 °C | Cc1nn(C)c2[nH]c(=O)c3c(c12)CCCC3 |
| 185 to 186 °C | Cc1ccccc1C(=O)Nc1nc2ccccc2c(=O)n1C |
| 158 to 160 °C | COC(=O)C=C(Nc1coc2ccc(Cl)cc2c1=O)C(=O)OC |
| 113 to 114 °C | CCOC(=O)Cn1c(-c2ccc3c(c2)OCCO3)nc2ccccc21 |
| 143 °C | COc1ccc(S(=O)(=O)N2C(=O)C(c3ccccc3O)(N3CCC[C@H]3C(=O)N(C)C)c3cc(Cl)ccc32)c(OC)c1 (some centres not stated) |
| 95 to 97 °C | COC(=O)c1ccc(OCC(=O)c2cc3cc(C(C)C)ccc3o2)cc1 |
| 125 to 126 °C | COc1ncnc(OC)c1CON=C(C)c1cc(C)cc(C)n1 |
| 170 to 172 °C | Cc1ccc2c(c1C)OCC(NNc1ncnc3c1ncn3C1OC(CO)C(O)C1O)C2 (configuration not stated) |
| 125 to 127 °C | Nc1cccc(-c2ccc(CCN3CCN(C(=O)c4ccccc4)CC3)cc2)n1 |
| 84 to 85 °C | CCOC(=O)c1ncn(-c2nccs2)c1S(N)(=O)=O |
| 86 to 87 °C | COc1cc(OC)nc(Oc2cccc(Cl)c2N)n1 |
| 86 to 88 °C | CCC(CN1C(=O)c2ccccc2C1=O)N1CCC(c2noc3cc(F)ccc23)CC1 (configuration not stated) |
| 211 to 212 °C | CCCc1c2[nH]c(C(=O)OCC)cc(=O)c2cc2c(=O)cc(C(=O)OCC)oc12 |
| 56 °C | CCOC(=O)C(Cc1ccc(CN(CC)CC)cc1)NC(=O)OC(C)(C)C (configuration not stated) |
| 253 to 254 °C | CCC(=C(c1ccc(O)cc1)c1ccc(O)cc1)c1ccc(OCC(=O)O)c(OC)c1 |

| Structure (SMILES) | melting point |
| --- | --- |
| Cc1nnc2n1-c1ccccc1C(c1ccc(Cl)cc1)=NC2NN(C(=O)NN)C(=O)c1ccccc1 (configuration not stated) | 243 to 245 °C |
| CCCCCCCCCCCc1nnc2n1-c1ccccc1C(c1ccc(Cl)cc1)NC2 (configuration not stated) | 94 to 95 °C |
| Cc1c(C(=O)O)nnn1Cc1ccccc1Cl | 186 to 187 °C |
| CNC(=O)ON=C(C)SC(C)C(N)=O (configuration not stated) | 161 to 163 °C |
